According to PubChem BioAssay (NCI):
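In this assay, cells in 96-well plates receive the compound at five concentrations for 48 hours. Endpoints are linearly interpolated between the surrounding concentrations. The concentration for 50% growth inhibition is given as GI50. TGI is the concentration that stops growth completely.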

Key:
Test in all cases: inhibition of tumour cell growth, NCI panel, 48 h
786-0 renal = system: 786-0 renal
CCRF-CEM leukemia = system: CCRF-CEM leukemia
HCT-116 colon = system: HCT-116 colon
HT29 colon = system: HT29 colon
KM12 colon = system: KM12 colon
NCI-H522 lung = system: NCI-H522 lung
OVCAR-3 ovarian = system: OVCAR-3 ovarian
SF-268 CNS = system: SF-268 CNS
NCI-H226 lung = system: NCI-H226 lung
MDA-MB-231 breast = system: MDA-MB-231 breast

Row | SMILES | TGI (786-0 renal) [µM] | TGI (CCRF-CEM leukemia) [µM] | TGI (HCT-116 colon) [µM] | TGI (HT29 colon) [µM] | TGI (KM12 colon) [µM] | TGI (NCI-H522 lung) [µM] | TGI (OVCAR-3 ovarian) [µM] | TGI (SF-268 CNS) [µM] | GI50 (786-0 renal) [µM] | GI50 (CCRF-CEM leukemia) [µM] | GI50 (HCT-116 colon) [µM] | GI50 (KM12 colon) [µM] | GI50 (NCI-H226 lung) [µM] | TGI (NCI-H226 lung) [µM] | GI50 (NCI-H522 lung) [µM] | GI50 (OVCAR-3 ovarian) [µM] | GI50 (SF-268 CNS) [µM] | GI50 (MDA-MB-231 breast) [µM] | TGI (MDA-MB-231 breast) [µM] | GI50 (HT29 colon) [µM]
1 | O=C(N/C(=C\c1ccc(/C=C(\NC(=O)c2ccccc2)c2nc3c(O)nc(S)nc3[nH]2)cc1)c1nc2c(O)nc(S)nc2[nH]1)c1ccccc1 | > 100 | > 100 | > 100 | > 100 | > 100 | 41.1 | > 100 | > 100 | – | – | – | – | – | – | – | – | – | – | – | –
2 | Clc1ccc(-c2nc(NCc3ccco3)c3ccccc3n2)c(Cl)c1 | 56.1 | > 100 | 45.8 | – | 27.3 | > 100 | 29.7 | 75.3 | 20 | 10.5 | 16.3 | 10.2 | 20.7 | > 100 | 33.7 | 11.6 | 32.3 | – | – | –
3 | O=C1/C(=C/c2ccc(C(F)(F)F)cc2)COc2ccc(O)c(O)c21 | 2.85 | 2.25 | 3.12 | – | 3.84 | 0.515 | 1.84 | 3.83 | 1.32 | 0.335 | 1.35 | 1.7 | 1.59 | 3.09 | 0.216 | 0.514 | 1.67 | 1.18 | 2.65 | –
4 | N#Cc1ccc(C2SCc3nc4ccccc4n32)cc1 (stereo unspecified) | > 100 | > 100 | > 100 | – | > 100 | 75.8 | > 100 | > 100 | – | – | – | – | – | – | – | – | – | – | – | –
5 | CC1=C[C@@H]2c3c(c(O)c(O)c4oc5cc(O)cc(O)c5c(=O)c34)[C@@H](c3cc(O)c(O)c4oc5cc(O)cc(O)c5c(=O)c34)[C@@H]2C(C)(C)C1 | 11.5 | – | 9.85 | 14.8 | 12.2 | 12.1 | 13.4 | 16.1 | 2.69 | – | 2.7 | 3.1 | 3.82 | 28.4 | 2.9 | 3.33 | 3.25 | 4.19 | 20.5 | 3.86
6 | CCN(CC)C(=S)SS(C)(=O)=O | 33.3 | – | 43.1 | 31 | 31.7 | 0.137 | – | – | – | – | – | – | – | 31.3 | – | – | – | – | – | –
7 | O=C1C=CC(=O)c2c1nc(CBr)[nH]c2=O | > 100 | – | > 100 | > 100 | > 100 | > 100 | > 100 | > 100 | – | – | – | – | – | – | – | – | – | – | > 100 | –
8 | Cc1[nH]c2cc([N+](=O)[O-])ccc2c1[N+](=O)[O-] | > 100 | 64.6 | – | 97 | 67.6 | 38.4 | > 100 | > 100 | – | – | – | – | – | 71.8 | – | – | – | – | – | –
9 | CCOC(=O)C1C(=O)CC(=O)C2CCCCC21 (stereo unspecified) | > 100 | > 100 | > 100 | – | > 100 | > 100 | > 100 | > 100 | – | – | – | – | – | – | – | – | – | – | – | –
10 | COC(=O)[C@@]12C3=NO[C@]1(C(=O)OC)C(O[Si](C)(C)C(C)(C)C)[C@@H](OC(C)=O)[C@@H](OC(C)=O)[C@@H]2[C@@H](OCc1ccccc1)CC3 (stereo partly specified) | > 100 | > 100 | > 100 | > 100 | > 100 | > 100 | > 100 | > 100 | – | – | – | – | – | > 100 | – | – | – | – | – | –
11 | COc1ccc2c(c1)[n+]([O-])c(-c1ccccc1Cl)c(N)[n+]2[O-] | > 100 | – | > 100 | > 100 | > 100 | 31.3 | > 100 | > 100 | – | – | – | – | – | > 100 | – | – | – | – | – | –
12 | CC(=O)Nc1ccc(/C=c2\sc3nnc(-c4cccnc4)n3c2=O)cc1 | 31.4 | 53.9 | 28.9 | 34.5 | 31 | 33.2 | 34 | 60 | – | – | – | – | – | > 100 | – | – | – | – | – | –
13 | CCOCCOCCOCCOCCOCCOCCOCCOCCOCCO (tested in a mixture with another compound) | 14.4 | > 32.5 | 4.68 | 4.36 | 4.67 | – | 4.63 | 20.8 | 2.83 | 1.06 | 1.01 | 1.2 | 1.22 | 12.5 | – | 0.476 | 1.61 | – | – | 1.16
14 | Cc1ccc(S(=O)(=O)NNS(C)(=O)=O)cc1 | > 100 | > 100 | > 100 | > 100 | > 100 | > 100 | > 100 | > 100 | – | – | – | – | – | – | – | – | – | – | – | –
15 | CC1(C)C(=O)/C=C\C(=O)C(C)(C)C(=O)/C=C\C(=O)C(C)(C)C2=CC=C(O2)C(C)(C)C(=O)/C=C\C1=O | 12.7 | – | 5 | 8.45 | 19.8 | 2.22 | 9.41 | 43.8 | – | – | – | – | – | 18.1 | – | – | – | – | – | –
16 | Cc1ccc(S(=O)(=O)C2CC2(Cl)Cl)cc1 (stereo unspecified) | 43.3 | 35 | 44.7 | 37.5 | > 100 | 26.7 | 52.6 | > 100 | – | – | – | – | – | > 100 | – | – | – | – | – | –
17 | COc1ccc2nc3ccccc3c(NCCCCN(CCCl)CCCl)c2c1 | 1.64 | – | 1.32 | > 100 | 3.48 | – | – | 2.36 | – | – | – | – | – | 9.65 | – | – | – | – | 16.7 | –
18 | CCCCOC(=O)NC(=O)c1cn(CCCOC(=O)CCCCCCCCC(=O)OCCCn2cc(C(=O)NC(=O)OCCCC)c(=O)n(C)c2=O)c(=O)n(C)c1=O | > 100 | > 100 | > 100 | > 100 | > 100 | > 100 | > 100 | > 100 | – | – | – | – | – | > 100 | – | – | – | – | – | –
19 | CCN(CC)c1c(C)nnn1C1OC(COC(C)=O)C(OC(C)=O)C(OC(C)=O)C1OC(C)=O (stereo unspecified) | > 100 | > 100 | > 100 | > 100 | > 100 | > 100 | > 100 | > 100 | – | – | – | – | – | > 100 | – | – | – | – | – | –
20 | O=C(Oc1c(Cl)cc(Cl)cc1Cl)c1ccccc1Nc1ccnc(C(F)(F)F)c1 | 11.1 | – | 4.28 | > 100 | 32.5 | > 100 | > 100 | > 100 | 2.95 | – | 1.72 | 4.11 | 5.93 | 24.6 | 5.7 | 4.3 | 3.92 | 3.25 | 18.9 | 4.59
